Each structure is given as a SMILES string. Bounds are passed on as bounds.

25 molecules from patent publication US6887869B2, “Mikanolide derivatives, their preparation and therapeutic uses” (Societe de Conseils de Recherches et d'Applications …, priority 2001, dated 2005) can be followed below.

In test [1] the test system is Mia-PaCa2 (human pancreatic cancer cells). The test is described as follows: Measurement of cell proliferation (WST1), Mia-PaCa2. It is filed as cell-based. The conditions noted are these: MIA PaCa-2, Mia-Paca2, 96 hours treatment, read-out: IC50 inhibitory concentration, proliferation of Mia-Paca2 cell lines. As to the method: (§1) DU-145 (human prostate cancer cells), HT29 (cancer of the colon) and Mia-PaCa2 (human pancreatic cancer cells) were acquired from the American Tissue Culture Collection (Rockville, Md., USA).
(§2) Measurement of Cell Proliferation
(§3) The cells placed in 80 μl of Dulbecco's modified Eagle medium (Gibco-BRL, Cergy-Pontoise, France) completed with 10% of foetal calf serum inactivated by heating (Gibco-BRL, Cergy-Pontoise, France), 50000 units/l of penicillin and 50 mg/l streptomycin (Gibco-BRL, Cergy-Pontoise, France), and 2 mM of glutamine (Gibco-BRL, Cergy-Pontoise, France) were seeded on a 96-well plate on day 0. The cells were treated on day 1 for 96 hours with increasing concentrations of each of the compounds to be tested. At the end of the of this period, quantification of the cell proliferation is evaluated by a calorimetric test based on the cleavage of the tetrazolium salt WST1 by mitochondrial dehydrogenases in viable cells leading to the formation of formazan (Boehringer Mannheim, Meylan, France). These tests are carried out in duplicate with 8 determinations per concentration tested. The products are solubilised in dimethylsulphoxide (DMSO) at 10^−2 M and finally used in culture with 0.5% DMSO.
(In general: Formazan colour is commonly taken as a measure of viable cells.)

The subject of test [2] is DU-145 (human prostate cancer cells). The test is described as follows: Measurement of cell proliferation (WST1), DU-145. Particulars: DU-145, 96 hours treatment, read-out: IC50 inhibitory concentration, proliferation of DU-145 cell lines. It is filed as cell-based. The procedure: as §1, §2, §3

Take `CN(C)CC1C(=O)OC2CC3(C)OC3C(O)C(N(C)C)C3=CC(OC3=O)C21` (stereo not shown) [Example 2, 12-dimethylamino-3-dimethylaminomethyl-11-hydroxy-8-methyl-5,9,15-trioxatetracyclo[11.2.1.0^2,6.0^8,10]hexadec-13(16)-ene-4,14-dione]: the IC50 in test [1] and in test [2] was no more than 30 µM in each case.

For the molecule `CC12CC3OC(=O)C(CN4CCOCC4)C3C3C=C(C(=O)O3)C(N3CCOCC3)C(O)C1O2` (stereo not shown) [Example 4, 11-hydroxy-8-methyl-12-morpholino-3-morpholinomethyl-5,9,15-trioxatetracyclo[11.2.1.0^2,6.0^8,10]hexadec-13(16)-ene-4,14-dione], in test [1], the IC50 is no more than 30 µM.

Turning to `CC1C(=O)OC2CC3(C)OC3C(O)C(N(C)C)C3=CC(OC3=O)C21` (stereo not shown) [Example 5, 12-dimethylamino-11-hydroxy-3,8-dimethyl-5,9,15-trioxatetracyclo[11.2.1.0^2,6.0^8,10]hexadec-13(16)-ene-4,14-dione], in test [1], the IC50 is no more than 30 µM.

Consider `CC1CCN(C2C3=CC(OC3=O)C3C(CC4(C)OC4C2O)OC(=O)C3C)CC1` (stereo not shown) [Example 9, 11-hydroxy-3,8-dimethyl-12-(4-methylpiperidino)-5,9,15-trioxatetracyclo[11.2.1.0^2,6.0^8,10]hexadec-13(16)-ene-4,14-dione], for which the IC50 in test [1] and in test [2] was no more than 30 µM in each case.

Regarding `CC1C(=O)OC2CC3(C)OC3C(O)C(N3CCCC3)C3=CC(OC3=O)C21` (stereo not shown) [Example 10, 11-hydroxy-3,8-dimethyl-12-pyrrolidino-5,9,15-trioxatetracyclo[11.2.1.0^2,6.0^8,10]hexadec-13(16)-ene-4,14-dione], in test [1], the IC50 was no more than 30 µM.

For the molecule `CC1C(=O)OC2CC3(C)OC3C(O)C(N3CCC(Cc4ccccc4)CC3)C3=CC(OC3=O)C21` (stereo not shown) [Example 12, 12-(4-benzylpiperidino)-11-hydroxy-3,8-dimethyl-5,9,15-trioxatetracyclo[11.2.1.0^2,6.0^8,10]hexadec-13(16)-ene-4,14-dione], the IC50 in test [1] is no more than 30 µM.

In the case of `CC1CCN(C2C3=CC(OC3=O)C3C(CC4(C)OC4C2OC(=O)c2ccccc2)OC(=O)C3C)CC1` (stereo not shown) [Example 18, 3,8-dimethyl-12-(4-methylpiperidino)-4,14-dioxo-11-phenylcarbonyloxy-5,9,15-trioxatetracyclo[11.2.1.0^2,6.0^8,10]hexadec-13(16)-ene], the IC50 in test [1] and in test [2] was no more than 30 µM throughout.

`CCOC(=O)OC1C(N2CCC(C)CC2)C2=CC(OC2=O)C2C(CC3(C)OC13)OC(=O)C2C` (stereo not shown) [Example 19, ethyl 3,8-dimethyl-12-(4-methylpiperidino)-4,14-dioxo-5,9,15-trioxatetracyclo[11.2.1.0^2,6.0^8,10]hexadec-13(16)-en-11-yl carbonate]: the IC50 in test [1] was no more than 30 µM.

For `CC(C)CSCC1C(=O)OC2CC3(C)OC3C(O)C(SCC(C)C)C3=CC(OC3=O)C21` (stereo not shown) [Example 20, 11-hydroxy-12-isobutylsulphanyl-3-isobutylsulphanylmethyl-8-methyl-5,9,15-trioxatetracyclo[11.2.1.0^2,6.0^8,10]hexadec-13(16)-ene-4,14-dione], the IC50 in test [1] is no more than 30 µM.

On to `CC1C(=O)OC2CC3(C)OC3C(OC(=O)C3CCCCC3)C(N(C)C)C3=CC(OC3=O)C21` (stereo not shown) [Example 24, 12-(dimethylamino)-3,8-dimethyl-4,14-dioxo-5,9,15-trioxatetracyclo[11.2.1.0^2,6.0^8,10]hexadec-13(16)-en-11-yl cyclohexanecarboxylate], for which the IC50 in test [1] and in test [2] was no more than 30 µM in each case.

On to `CC1C(=O)OC2CC3(C)OC3C(OC(=O)c3ccc(F)cc3)C(N(C)C)C3=CC(OC3=O)C21` (stereo not shown) [Example 25, 12-(dimethylamino)-3,8-dimethyl-4,14-dioxo-5,9,15-trioxatetracyclo[11.2.1.0^2,6.0^8,10]hexadec-13(16)-en-11-yl 4-fluorobenzoate], for which the IC50 in test [1] and in test [2] was no more than 30 µM throughout.

In the case of `CCCCCCC(=O)OC1C(N(C)C)C2=CC(OC2=O)C2C(CC3(C)OC13)OC(=O)C2C` (stereo not shown) [Example 27, 12-(dimethylamino)-3,8-dimethyl-4,14-dioxo-5,9,15-trioxatetracyclo[11.2.1.0^2,6.0^8,10]hexadec-13(16)-en-11-yl heptanoate], the IC50 in test [1] and in test [2] was no more than 30 µM throughout.

With `CC1C(=O)OC2CC3(C)OC3C(OC(=O)c3ccc(C(F)(F)F)cc3)C(N(C)C)C3=CC(OC3=O)C21` (stereo not shown) [Example 28, 12-(dimethylamino)-3,8-dimethyl-4,14-dioxo-5,9,15-trioxatetracyclo[11.2.1.0^2,6.0^8,10]hexadec-13(16)-en-11-yl 4-(trifluoromethyl)benzoate], the IC50 in test [1] and in test [2] was no more than 30 µM in each case.

For `CC1C(=O)OC2CC3(C)OC3C(OC(=O)c3cccs3)C(N(C)C)C3=CC(OC3=O)C21` (stereo not shown) [Example 29, 12-(dimethylamino)-3,8-dimethyl-4,14-dioxo-5,9,15-trioxatetracyclo[11.2.1.0^2,6.0^8,10]hexadec-13(16)-en-11-yl 2-thiophenecarboxylate], the IC50 in test [1] and in test [2] was no more than 30 µM in each case.

Consider `CC1C(=O)OC2CC3(C)OC3C(OC(=O)CC(C)(C)C)C(N(C)C)C3=CC(OC3=O)C21` (stereo not shown) [Example 30, 12-(dimethylamino)-3,8-dimethyl-4,14-dioxo-5,9,15-trioxatetracyclo[11.2.1.0^2,6.0^8,10]hexadec-13(16)-en-11-yl 3,3-dimethylbutanoate], for which the IC50 in test [1] and in test [2] was no more than 30 µM each time.

For `CC1C(=O)OC2CC3(C)OC3C(OC(=O)c3cc4ccccc4s3)C(N(C)C)C3=CC(OC3=O)C21` (stereo not shown) [Example 31, 12-(dimethylamino)-3,8-dimethyl-4,14-dioxo-5,9,15-trioxatetracyclo[11.2.1.0^2,6.0^8,10]hexadec-13(16)-en-11-yl 1-benzothiophene-2-carboxylate], the IC50 in test [1] and in test [2] was no more than 30 µM throughout.

For the molecule `CC1C(=O)OC2CC3(C)OC3C(OC(=O)c3ccco3)C(N(C)C)C3=CC(OC3=O)C21` (stereo not shown) [Example 32, 12-(dimethylamino)-3,8-dimethyl-4,14-dioxo-5,9,15-trioxatetracyclo[11.2.1.0^2,6.0^8,10]hexadec-13(16)-en-11-yl 2-furoate], the IC50 in test [1] and in test [2] was no more than 30 µM throughout.

For the molecule `CC1C(=O)OC2CC3(C)OC3C(OC(=O)c3ccc([N+](=O)[O-])o3)C(N(C)C)C3=CC(OC3=O)C21` (stereo not shown) [Example 33, 12-(dimethylamino)-3,8-dimethyl-4,14-dioxo-5,9,15-trioxatetracyclo[11.2.1.0^2,6.0^8,10]hexadec-13(16)-en-11-yl 5-nitro-2-furoate], the IC50 in test [1] is no more than 30 µM.

Consider `CC1C(=O)OC2CC3(C)OC3C(OC(=O)Cc3cccs3)C(N(C)C)C3=CC(OC3=O)C21` (stereo not shown) [Example 35, 12-(dimethylamino)-3,8-dimethyl-4,14-dioxo-5,9,15-trioxatetracyclo[11.2.1.0^2,6.0^8,10]hexadec-13(16)-en-11-yl 2-thienylacetate], for which the IC50 in test [1] was no more than 30 µM.

`CC1C(=O)OC2CC3(C)OC3C(OC(=O)COc3ccccc3)C(N(C)C)C3=CC(OC3=O)C21` (stereo not shown) [Example 36, 12-(dimethylamino)-3,8-dimethyl-4,14-dioxo-5,9,15-trioxatetracyclo[11.2.1.0^2,6.0^8,10]hexadec-13(16)-en-11-yl phenoxyacetate]: the IC50 in test [1] is no more than 30 µM.

Turning to `CC1C(=O)OC2CC3(C)OC3C(OC(=O)Nc3ccc(C(C)(C)C)cc3)C(N(C)C)C3CC(OC3=O)C21` (stereo not shown) [Example 37, 8-(dimethylamino)-3,10a-dimethyl-2,6-dioxodecahydro-4,7-methenofuro[3,2-c]oxireno[f]oxacycloundecin-9-yl 4-tert-butylphenylcarbamate], the IC50 in test [1] is no more than 30 µM.

Consider `COc1ccccc1NC(=O)OC1C(N(C)C)C2CC(OC2=O)C2C(CC3(C)OC13)OC(=O)C2C` (stereo not shown) [Example 39, 8-(dimethylamino)-3,10a-dimethyl-2,6-dioxodecahydro-4,7-methenofuro[3,2-c]oxireno[f]oxacycloundecin-9-yl 2-methoxyphenylcarbamate], for which the IC50 in test [1] and in test [2] was no more than 30 µM each time.

On to `CSc1ccccc1NC(=O)OC1C(N(C)C)C2CC(OC2=O)C2C(CC3(C)OC13)OC(=O)C2C` (stereo not shown) [Example 40, 8-(dimethylamino)-3,10a-dimethyl-2,6-dioxodecahydro-4,7-metheno-furo[3,2-c]oxireno[f]oxacycloundecin-9-yl 2(methylthio)phenylcarbamate], for which the IC50 in test [1] and in test [2] was no more than 30 µM throughout.

Turning to `CCOc1ccccc1NC(=O)OC1C(N(C)C)C2CC(OC2=O)C2C(CC3(C)OC13)OC(=O)C2C` (stereo not shown) [Example 41, 8-(dimethylamino)-3,10a-dimethyl-2,6-dioxodecahydro-4,7-methenofuro[3,2-c]oxireno[f]oxacycloundecin-9-yl 2-ethoxyphenylcarbamate], the IC50 in test [1] and in test [2] was no more than 30 µM each time.

Take `CC1C(=O)OC2CC3(C)OC3C(OC(=O)Nc3ccsc3)C(N(C)C)C3CC(OC3=O)C21` (stereo not shown) [Example 42, 8-(dimethylamino)-3,10a-dimethyl-2,6-dioxodecahydro-4,7-methenofuro[3,2-c]oxireno[f]oxacycloundecin-9-yl thien-3-ylcarbamate]: the IC50 in test [1] and in test [2] was no more than 30 µM throughout.
